Measurements as given in ChEMBL document CHEMBL1153239, “1-(3-Aryloxyaryl)benzimidazole sulfones are liver X receptor agonists” (Bioorg Med Chem Lett, 2010).

Assay: AUC (0 to last) in C57 mouse at 10 mg/kg, po
Format: ADME, organism-based
Design: time 0 - last, dose 10 mg/kg, route oral
Conditions: plasma
Molecule `CS(=O)(=O)c1cccc(Oc2cccc(-n3cnc4c(C(F)(F)F)cccc43)c2)c1` has an AUC(0-t) of 12100 ng·h/mL.
With `CCS(=O)(=O)c1cccc(Oc2cccc(-n3c(C)nc4c(C(F)(F)F)cccc43)c2)c1` the AUC(0-t) was 2940 ng·h/mL.
With `Cc1nc2c(C(F)(F)F)cccc2n1-c1cccc(Oc2cccc(S(=O)(=O)C(C)C)c2)c1` the AUC(0-t) was 1290 ng·h/mL.
`CCS(=O)(=O)c1cccc(Oc2cccc(-n3c(C)nc4c(Cl)cccc43)c2)c1` gave an AUC(0-t) of 1780 ng·h/mL.
For `CCc1nc2c(C(F)(F)F)cccc2n1-c1cccc(Oc2cccc(S(C)(=O)=O)c2)c1`, the AUC(0-t) was 1780 ng·h/mL.
Molecule `Cc1nc2c(C(F)(F)F)cccc2n1-c1cccc(Oc2cccc(S(C)(=O)=O)c2)c1` has an AUC(0-t) of 12900 ng·h/mL.
Molecule `CS(=O)(=O)c1cccc(Oc2cccc(-n3c(C(F)(F)F)nc4c(C(F)(F)F)cccc43)c2)c1` has an AUC(0-t) of 14300 ng·h/mL.
For `Cc1nc2c(Cl)cccc2n1-c1cccc(Oc2cccc(S(C)(=O)=O)c2)c1`, the AUC(0-t) was 1500 ng·h/mL.
